Activity calls are given as the source filed them. The calls are words filed in the database; no cut-off is given here.
Columns and labels:
Bone [1] = assay: Reduction in number of pre-osteoclasts in Sprague-Dawley rat bone at 10^-8 mol/L after 72 hrs by microscopy; type: functional, tissue-based; conditions: Bone element
Bone [2] = assay: Inhibition of osteoclastogenesis in Sprague-Dawley rat bone assessed as inhibition of fusion index at 10^-11 mol/L after 72 hrs by microscopy; type: functional; conditions: Bone element
[3] = Reduction of MMP9 mRNA expression in rat osteoclasts assessed as reduction in integral optical density at 10^-8 mol/L by in situ hybridization assay; type: functional, cell-based; conditions: Osteoclast
Bone [4] = assay: Inhibition of osteoclastogenesis in Sprague-Dawley rat bone assessed as inhibition of fusion index at 10^-10 mol/L after 72 hrs by microscopy; type: functional; conditions: Bone element
Bone [5] = assay: Inhibition of osteoclastogenesis in Sprague-Dawley rat bone assessed as decrease in TRAP-positive multi-nucleated cells after 72 hrs by microscopy; type: functional, tissue-based; conditions: Bone element
[6] = Reduction of MMP9 mRNA expression in rat osteoclasts assessed as reduction in mean optical density at 10^-8 mol/L by in situ hybridization assay; type: functional, cell-based; conditions: Osteoclast
[7] = Reduction of MMP9 protein expression in rat osteoclasts assessed as reduction in mean optical density by immunocytochemistry analysis; type: functional, cell-based; conditions: Osteoclast
Bone [8] = assay: Inhibition of osteoclastogenesis in Sprague-Dawley rat bone assessed as decrease in TRAP-positive multi-nucleated cells at 10^-8 mol/L after 72 hrs by microscopy; type: functional, tissue-based; conditions: Bone element
Osteoclast [9] = assay: Inhibition of rat osteoclasts-induced resorption in bovine bone co-cultured for 72 hrs using toluidine blue staining by SEM analysis; type: functional, cell-based
Bone [10] = assay: Inhibition of osteoclastogenesis in Sprague-Dawley rat bone assessed as inhibition of fusion index at 10^-8 mol/L after 72 hrs by microscopy; type: functional; conditions: Bone element
Osteoclast [11] = assay: Inhibition of rat osteoclasts-induced resorption in bovine bone at 10^-8 mol/L co-cultured for 72 hrs using toluidine blue staining by SEM analysis; type: functional, cell-based
[12] = Reduction of MMP9 protein expression in rat osteoclasts assessed as reduction in integral optical density by immunocytochemistry analysis; type: functional, cell-based; conditions: Osteoclast
Osteoclast [13] = assay: Reduction in number of resorption pits in rat osteoclasts-stimulated bovine bone at 10^-8 mol/L co-cultured for 72 hrs using toluidine blue staining by SEM analysis; type: functional, cell-based
Bone [14] = assay: Inhibition of osteoclastogenesis in Sprague-Dawley rat bone assessed as inhibition of fusion index at 10^-9 mol/L after 72 hrs by microscopy; type: functional; conditions: Bone element

O=C1O[C@H]2[C@@H]3OC(=O)c4cc(O)c(O)c(O)c4-c4c(cc(O)c(O)c4O)C(=O)OC[C@H]2O[C@@H](OC(=O)c2cc(O)c(O)c(O)c2)[C@@H]3OC(=O)c2cc(O)c(O)c3c2[C@@H]2C1=CC(=O)[C@](O)(O3)C2(O)O [GERANIIN]
Activity (Bone [1]): Active | inhibition at 10 pM (Bone [2]): 3.05% | Activity [3]: Active | inhibition at 0.0001 µM (Bone [4]): 9.31% | inhibition (Bone [5]): Dose-dependent effect | Activity [6]: Active | Activity [7]: Dose-dependent effect | inhibition (Bone [8]): Active | inhibition (Osteoclast [9]): Dose-dependent effect | inhibition at 0.01 µM (Bone [10]): 46% | inhibition (Osteoclast [11]): Active | Activity [12]: Dose-dependent effect | Activity (Osteoclast [13]): Active | inhibition at 0.001 µM (Bone [14]): 24.2%

— ChEMBL document CHEMBL2346539, “Effects of geraniin on osteoclastic bone resorption and matrix metalloproteinase-9 expression” (2013)
